Among the data in PubChem BioAssay (NCI) are GI50 and TGI values, retold here.

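Test compounds were applied to cells in 96-well plates for 48 hours at 5 doses. GI50: concentration for 50% inhibition of growth. TGI: concentration producing complete growth inhibition.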 Where only a bound is given, the exact number is not on record here.

Among the test systems are HCT-116 colon; HL-60(TB) leukemia; MALME-3M melanoma; NCI-H23 lung; SF-268 CNS; SF-539 CNS; SK-MEL-5 melanoma; SK-OV-3 ovarian; SR leukemia; TK-10 renal.
What all share (test): NCI tumour cell line growth inhibition, 48 h

As to `CCN(Cc1c(Cl)cccc1Cl)c1ccc(CO)c(Cl)c1`, the GI50 in the test with HCT-116 colon was less than 0.0379 µM; in the test with HL-60(TB) leukemia it was 8.17 µM; in the test on MALME-3M melanoma, 12.6 µM; with NCI-H23 lung it was 10.8 µM; in the test with SF-268 CNS, 15 µM; in the test on SF-539 CNS, 15.1 µM. Besides, the GI50 in the test on SK-MEL-5 melanoma was 2.86 µM; with SK-OV-3 ovarian, 9.84 µM; in the test with SR leukemia, 12.8 µM; with TK-10 renal it was less than 0.0238 µM. Further, the TGI in the test with HCT-116 colon was 11.3 µM; in the test on HL-60(TB) leukemia, 25.7 µM; with MALME-3M melanoma, 27.2 µM; with NCI-H23 lung, 26.2 µM; with SF-268 CNS, 28.8 µM; with SF-539 CNS, 28.6 µM. Further, the TGI stood at 19.5 µM in the test on SK-MEL-5 melanoma, 22.3 µM in the test on SK-OV-3 ovarian, 36.7 µM with SR leukemia and 0.0592 µM with TK-10 renal.

With `CCN(c1cc(C#CCN2CCOCC2)cc(C(=O)NCc2c(C)cc(C)[nH]c2=O)c1C)C1CCC(N(C)CCOC)CC1` (stereo not given), the GI50 in the test with HCT-116 colon, in the test with HL-60(TB) leukemia, with MALME-3M melanoma, with NCI-H23 lung, with SF-268 CNS and with SF-539 CNS was greater than 100 µM throughout. In addition, the GI50 in the test on SK-MEL-5 melanoma is greater than 100 µM; with SK-OV-3 ovarian it was greater than 100 µM; in the test with SR leukemia it was 27 µM; in the test with TK-10 renal, greater than 100 µM. Further, the TGI in the test on HCT-116 colon, with HL-60(TB) leukemia, in the test on MALME-3M melanoma, with NCI-H23 lung, in the test with SF-268 CNS and in the test with SF-539 CNS was greater than 100 µM throughout. The TGI in the test with SK-MEL-5 melanoma, in the test with SK-OV-3 ovarian, in the test on SR leukemia and in the test with TK-10 renal was greater than 100 µM in each case.

Regarding `COc1cccc2c1n([O-])c1cccc(OC)c1[n+]2=O`, the GI50 with HCT-116 colon was 3.7 µM; with HL-60(TB) leukemia, 3.23 µM; with MALME-3M melanoma, 8.05 µM; in the test on NCI-H23 lung, 4.82 µM; in the test on SF-268 CNS it was 6.71 µM; in the test on SF-539 CNS, 7.85 µM. The GI50 in the test on SK-MEL-5 melanoma was 3.59 µM; in the test on SK-OV-3 ovarian, 10.5 µM; in the test on SR leukemia, 0.897 µM; in the test on TK-10 renal, 24.3 µM. In addition, the TGI was 64.3 µM in the test with HCT-116 colon; 9.12 µM in the test with HL-60(TB) leukemia; 25.7 µM in the test with MALME-3M melanoma; 28 µM with NCI-H23 lung; 35.3 µM in the test on SF-268 CNS; greater than 100 µM in the test with SF-539 CNS. For the same compound, the TGI in the test on SK-MEL-5 melanoma was 14.9 µM; in the test on SK-OV-3 ovarian, 28.9 µM; in the test with SR leukemia, 9.36 µM; in the test with TK-10 renal it was greater than 100 µM.

For `Cc1c(Cl)cccc1NC(=O)c1sc2nc3c(cc2c1N)CCCCC3`, the GI50 was 0.196 µM in the test on HCT-116 colon; 0.143 µM with HL-60(TB) leukemia; 0.357 µM in the test on MALME-3M melanoma; 0.391 µM in the test on NCI-H23 lung; 0.426 µM in the test on SF-268 CNS; 0.171 µM in the test on SF-539 CNS. The GI50 in the test on SK-MEL-5 melanoma was 0.263 µM; with SK-OV-3 ovarian, 0.23 µM; in the test with SR leukemia, 0.174 µM; with TK-10 renal it was 6.66 µM. Moreover, the TGI in the test with HCT-116 colon was greater than 50 µM; with HL-60(TB) leukemia it was 0.484 µM; in the test with MALME-3M melanoma, 37.7 µM; with NCI-H23 lung, greater than 50 µM; in the test with SF-268 CNS, greater than 50 µM; in the test with SF-539 CNS it was 9.07 µM. Moreover, the TGI with SK-MEL-5 melanoma was 48.6 µM; with SK-OV-3 ovarian, 29.9 µM; with SR leukemia, greater than 50 µM; in the test on TK-10 renal it was 45.6 µM.

Turning to `O=S1Nc2c(Cl)cc(Cl)c(Cl)c2S1` (stereo not given), the TGI with HCT-116 colon, in the test with HL-60(TB) leukemia, in the test with MALME-3M melanoma, in the test on NCI-H23 lung, in the test with SF-268 CNS and with SF-539 CNS was greater than 100 µM each time. For the same compound, the TGI with SK-MEL-5 melanoma, in the test on SK-OV-3 ovarian, in the test on SR leukemia and in the test with TK-10 renal was greater than 100 µM each time.

As for `CC1=NN(c2nc(N)nc(/C=C\c3ccc([N+](=O)[O-])s3)n2)C(C)(C)C1`, the GI50 in the test with HCT-116 colon, in the test with HL-60(TB) leukemia, in the test with MALME-3M melanoma, with NCI-H23 lung, in the test with SF-268 CNS and with SF-539 CNS was greater than 100 µM each time. Also, the GI50 in the test with SK-MEL-5 melanoma was 40.9 µM; in the test on SK-OV-3 ovarian it was greater than 100 µM; in the test with SR leukemia, 49.9 µM; with TK-10 renal, greater than 100 µM. The TGI with HCT-116 colon, in the test on HL-60(TB) leukemia, in the test with MALME-3M melanoma, in the test with NCI-H23 lung, in the test on SF-268 CNS and in the test with SF-539 CNS was greater than 100 µM throughout. Also, the TGI in the test on SK-MEL-5 melanoma, with SK-OV-3 ovarian, in the test on SR leukemia and in the test with TK-10 renal was greater than 100 µM each time.

As to `CCSc1ccc(C2C(Br)C(=O)N2c2cc(OC)c(OC)c(OC)c2)cc1` (stereo not given), the GI50 in the test on HCT-116 colon was 0.222 µM; in the test on HL-60(TB) leukemia, 0.214 µM; in the test on MALME-3M melanoma, 11.3 µM; in the test on NCI-H23 lung, 0.478 µM; with SF-268 CNS, 1.18 µM; in the test on SF-539 CNS, 0.161 µM. The GI50 in the test with SK-MEL-5 melanoma is 0.0861 µM; with SK-OV-3 ovarian, 0.392 µM; with SR leukemia it was 0.0765 µM; in the test on TK-10 renal, 14.3 µM. For the same compound, the TGI was 10.6 µM in the test with HCT-116 colon; 0.527 µM in the test on HL-60(TB) leukemia; 32.4 µM in the test on MALME-3M melanoma; 73.4 µM with NCI-H23 lung; 52.7 µM in the test on SF-268 CNS; 0.61 µM in the test with SF-539 CNS. The TGI with SK-MEL-5 melanoma was 2.84 µM; with SK-OV-3 ovarian, greater than 100 µM; in the test with SR leukemia it was 26.3 µM; in the test on TK-10 renal it was 33.4 µM.

Take `COc1cc(-c2csc(NC(=O)Nc3cc(Cl)cc(Cl)c3)n2)cc(OC)c1OC`: the GI50 is 1.6 µM in the test on HCT-116 colon; 3.65 µM in the test on HL-60(TB) leukemia; 1.75 µM in the test with MALME-3M melanoma; 1.94 µM in the test on NCI-H23 lung; 2.81 µM in the test on SF-268 CNS; 1.99 µM in the test on SF-539 CNS. The GI50 in the test with SK-MEL-5 melanoma is 3.15 µM; in the test with SK-OV-3 ovarian, 1.86 µM; in the test on SR leukemia it was 2 µM; in the test with TK-10 renal it was 1.73 µM. Besides, the TGI was 2.97 µM in the test on HCT-116 colon; greater than 100 µM in the test on HL-60(TB) leukemia; 3.25 µM with MALME-3M melanoma; 4.5 µM in the test on NCI-H23 lung; 10.6 µM in the test with SF-268 CNS; 4.7 µM in the test with SF-539 CNS. Moreover, the TGI in the test with SK-MEL-5 melanoma stood at 11.2 µM; with SK-OV-3 ovarian it was 3.75 µM; with SR leukemia, 6.61 µM; in the test with TK-10 renal it was 3.16 µM.
